Results on seven molecules are retold here after patent publication US5411956A, “Lipolytic enzyme inhibitors” (Nisshin Flour Milling Co., Ltd., priority 1989, dated 1995).

Series [1] deals with T1, porcine pancreatic lipase (Sus scrofa, UniProt P00591).
T1 construct: purchased Sigma Co., Ltd
T1 sequence (P00591 1-450): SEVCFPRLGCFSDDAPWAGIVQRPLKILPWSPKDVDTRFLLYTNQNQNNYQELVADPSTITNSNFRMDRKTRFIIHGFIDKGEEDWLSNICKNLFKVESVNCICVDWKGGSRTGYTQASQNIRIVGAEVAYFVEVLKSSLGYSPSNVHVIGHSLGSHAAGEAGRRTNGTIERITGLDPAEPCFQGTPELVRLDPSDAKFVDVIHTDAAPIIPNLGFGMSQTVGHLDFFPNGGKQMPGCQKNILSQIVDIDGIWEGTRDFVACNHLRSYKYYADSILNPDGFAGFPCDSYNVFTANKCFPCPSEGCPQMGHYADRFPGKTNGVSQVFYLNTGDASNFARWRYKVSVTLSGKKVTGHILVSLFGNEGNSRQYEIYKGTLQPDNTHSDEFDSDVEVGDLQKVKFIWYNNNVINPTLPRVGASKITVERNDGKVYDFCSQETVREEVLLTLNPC
Nature of the series: Assay of lipase inhibitory activity (olive oil emulsion with sodium cholate, Tris buffer). It is filed as biochemical. As to the method: 250 mg of an olive oil, 21.5 mg of sodium cholate as a bile acid component and 30 mg of phosphatidylcholine were added to 5 ml of a 200 mM Tris buffer solution at pH 6.8 (called hereafter "Tris buffer").
(§1) The mixture was ultrasonicated to prepare an olive oil emulsion.
Porcine pancreatic lipase (manufactured by Sigma Co., Ltd.) was added to Tris buffer to prepare an enzyme solution containing 100 units porcine pancreatic lipase per ml.
(§2) The control and six test samples were prepared in the following manner.
(§3) 100 μl of an olive oil emulsion as prepared above were used as a substrate.
(§4) 50 μl of Tris buffer was added to the substrate to prepare an emulsion for control sample. […] All of the emulsions were incubated for 5 min. To each of those emulsions was added 50 μl of the lipase solution as prepared above. The resulting mixture was incubated at 37° C. for one hour, subsequently to which were added 3 ml of the same extraction solvent as used in Example 1. After being shaken for 5 min., the mixture was centrifuged at 3000 rpm for 5 min. The upper layer was removed with an aspirator and to the remaining solution was added 1 ml of the same copper reagent as used in Example 1. The mixture was shaken for 5 min. and centrifuged at 3000 rpm for 5 min. 0.5 ml of a solution was taken from the upper layer and to the solution was added 0.5 ml of the same color developing agent as used in Example 1.
(§5) The resulting solutions for control and test samples were measured for the absorbance at 480 nm (A480) using a photometer to determine the amount of the free fatty acids as formed, i.e., the activity of the porcine pancreatic lipase.
100 μl of an olive oil emulsion prepared in the same way as in Example 4 were used as a substrate.
50 μl of Tris buffer was added to the substrate to prepare an emulsion for control sample. Each 50 μl of the polypeptide-containing solutions as prepared above was added to 100 μl of the substrate to prepare two emulsions for test sample. After incubating the emulsions for 5 min., there was added 50 μl of the enzyme solution prepared in the same way as in Example 4.
Further, the incubated mixture was treated and measured for the activity of porcine pancreatic lipase in the same way as in Example 4.
Lysine oligomers having a degree of polymerization of 2-5 as shown in Table 6 below were prepared using a peptide synthesizer (Biolynx 4170, LKB-Pharmacia Co., Ltd.). Each of the oligomers was purified by high performance liquid chromatography. Each of the purified oligomers was added to distilled water to make up to 1 μmol/ml. […] lysine oligomer-containing solutions were thus prepared.
50 μl of Tris buffer was added to the substrate to prepare an emulsion for control sample. […] After incubating the emulsions for 5 min., there was added 50 μl of a lipase solution containing 100 units of porcine pancreatic lipase per ml as prepared in the same way as in Example 4.

For series [2], the target named is T1, porcine pancreatic lipase. Nature of the series: Assay of lipase inhibitory activity of proteins (olive oil emulsion with sodium cholate, potassium phosphate buffer). To be noted: for Activity of porcine pancreatic lipase (%): 4 mg/ml protein solution, percentage of control Abs480, sodium cholate present, potassium phosphate buffer pH 6.8, 37 °C, one hour. It is filed as biochemical. As to the method:
250 mg of an olive oil, 21.5 mg of sodium cholate as a bile acid component and 30 mg of phosphatidylcholine were added to 5 ml of a 300 mM potassium phosphate buffer solution at pH 6.8 (called hereafter "potassium phosphate buffer").
as §1
Porcine pancreatic lipase (manufactured by Sigma Co., Ltd.) was added to the potassium phosphate buffer solution to prepare a lipase solution containing 100 units porcine pancreatic lipase per ml.
as §2, §3
50 μl of potassium phosphate buffer was added to the substrate to prepare an emulsion for control sample. Each 50 μl of the protein(polypeptide)-containing solutions as prepared above was added to 100 μl of the substrate to prepare six emulsions for test samples. All of the emulsions were incubated for 5 min. To each of those emulsions was added 50 μl of the lipase solution as prepared above. The resulting mixture was incubated at 37 ° C. for one hour, subsequently to which were added 3 ml of an extraction solvent (chloroform:methanol:n-heptane=49:1:49). After being shaken for 5 min., the mixture was centrifuged at 3000 rpm for 5 min. The upper layer was removed with an aspirator and to the remaining solution was added 1 ml of a copper reagent (0.45M triethanol amine, 0.05N acetic acid, 3.4% copper sulfate pentahydrate and 20% sodium chloride). The mixture was shaken for 5 min. and centrifuged at 3000 rpm for 5 min. 0.5 ml of a solution was taken from the upper layer and to the solution was added 0.5 ml of a color developing agent (a solution of 0.1% bathocuproine and 0.05% butyl hydroxyanisole in the above extraction solvent).
as §5

The subject of series [3] is cholesterol esterase isolated from porcine pancreas. As to conditions: 4 mg/ml protein solution; percentage of control Abs480; sodium cholate present; 37 °C, one hour. As to the method:
as §3
as §4, with “potassium phosphate” for “Tris”

The nature of series [4]: Serum triglyceride concentration in rats after oral corn oil emulsion. It is filed as in vivo, SD male rats. As to conditions: 2 ml corn oil emulsion + 100 mg ε-poly-L-lysine/dextrin 1:1, relative to pre-dose (0). As to the method: Two groups of 10 SD male rats (9 weeks age, 200 g average bodyweight) were prepared.
50 g of corn oil, 6 g of yolk lecithine and 12.5 g of glycerol were added to distilled water to make up to 100 ml. The mixture was ultrasonicated to prepare an emulsion.
The rats of first group were each given 2 ml of the emulsion and 100 mg of ε-poly-L-lysine manufactured by Chisso Corp. (containing dextrin and ε-poly-L-lysine at a weight ratio of 1:1 and having formula (I) wherein n is ca. 30), orally using a gastric probe. Blood was drawn at predetermined intervals from the tail vein, and serum triglyceride concentration was measured using Kyowa Medics enzyme Kit TG, determined for mean value (mg/dl) per animal and calculated on the basis of serum triglyceride concentration prior to administration (taken as 0 mg/dl) (According to the invention).
The rats of second group were orally given 2 ml of the emulsion and 50 mg of dextrin. Serum triglyceride concentration was measured at predetermined intervals, determined for the average value and calculated in the same way as above (Comparative example).

Where [5] appears, read: 1 mg per 10 ml Tris buffer solution, pH 6.8, sodium cholate present, percentage of control Abs480.
Setting [6] is: 1 mg/ml peptide solution in distilled water, Tris buffer system as Example 4.

Regarding Protamine, in series [1] (setting [5]), the “Activity of porcine pancreatic lipase (%)” value amounted to 1.3%.

As for α-poly-D-lysine hydrobromide, in series [1] (setting [6]), the “Activity of porcine pancreatic lipase (%)” value came to 1.1%.

Take α-poly-L-lysine hydrochloride: the “Activity of porcine pancreatic lipase (%)” value in series [1] (setting [5]) was 6.9%; in series [1] (setting [6]), 1.6%.

“β-Lactoglobulin: β-lactoglobulin (L0130, Sigma Co., Ltd.), not a basic protein [reference compound]”: the “Activity of porcine pancreatic lipase (%)” value in series [2] is on record as 103.9%. For the same molecule, in series [3], the “Activity of cholesterol esterase (%)” value came out at 89.9%.

On to “β-Purothionin: purified β-purothionin (SEQ ID NO: 3) isolated from the crude wheat purothionin mixture (KSCCKSTLGRNCYNLCRARGAQKLCANVCRCKLTSGLSCPKDFPK)”, for which the entries for the “Activity of porcine pancreatic lipase (%)” value in series [1] (setting [5]) and in series [2] were 1.3% and 0%, respectively. In addition, the “Activity of porcine pancreatic lipase” value in series [2] (concentration of 0.04 mg/ml, separate experiment in a similar manner) was 5.2%. This molecule also came in with a Lipase activity in series [2] (protein solution diluted to 0.2 mg/ml, otherwise as Example 1) of 0%.

As for ε-poly-L-lysine, the “Blood concentration of neutral fats” value was 53.3 ± 2.5 mg/dL in series [4] (1 hr after oral administration); 32.4 ± 4.9 mg/dL in series [4] (2 hrs after oral administration); 16.7 ± 3.2 mg/dL in series [4] (3 hrs after oral administration); 11.1 ± 3.0 mg/dL in series [4] (4 hrs after oral administration); 4.2 ± 1.0 mg/dL in series [4] (7 hrs after oral administration).

B1: Ovalbumin: ovalbumin (A5503, Sigma Co., Ltd.), not a basic protein (protein, UniProt P01012 2-386, looked up)
Ovalbumin: GSIGAASMEFCFDVFKELKVHHANENIFYCPIAIMSALAMVYLGAKDSTRTQINKVVRFDKLPGFGDSIEAQCGTSVNVHSSLRDILNQITKPNDVYSFSLASRLYAEERYPILPEYLQCVKELYRGGLEPINFQTAADQARELINSWVESQTNGIIRNVLQPSSVDSQTAMVLVNAIVFKGLWEKAFKDEDTQAMPFRVTEQESKPVQMMYQIGLFRVASMASEKMKILELPFASGTMSMLVLLPDEVSGLEQLESIINFEKLTEWTSSNVMEERKIKVYLPRMKMEEKYNLTSVLMAMGITDVFSSSANLSGISSAESLKISQAVHAAHAEINEAGREVVGSAEAGVDAASVSEEFRADHPFLFCIKHIATNAVLFFGRCVSP
Regarding B1, the “Activity of porcine pancreatic lipase (%)” value in series [2] turned out to be 107.0%. Further, the “Activity of cholesterol esterase (%)” value in series [3] is 93.6%.
